Experimental findings from patent US12459914B2, “Compounds and compositions for the treatment of tumors” (FONDAZIONE ISTITUTO ITALIANO DI TECNOLOGIA, priority 2019, dated 2025) are described below.

Molecules are shown by their SMILES.

One assay addresses T1, BRC4/RAD51 interaction (Homo sapiens, UniProt Q06609).
T1 construct: purchased Creative Biomart (Rad51); Life Technologies (BRC4 peptide)
T1 sequence (Q06609 1-339): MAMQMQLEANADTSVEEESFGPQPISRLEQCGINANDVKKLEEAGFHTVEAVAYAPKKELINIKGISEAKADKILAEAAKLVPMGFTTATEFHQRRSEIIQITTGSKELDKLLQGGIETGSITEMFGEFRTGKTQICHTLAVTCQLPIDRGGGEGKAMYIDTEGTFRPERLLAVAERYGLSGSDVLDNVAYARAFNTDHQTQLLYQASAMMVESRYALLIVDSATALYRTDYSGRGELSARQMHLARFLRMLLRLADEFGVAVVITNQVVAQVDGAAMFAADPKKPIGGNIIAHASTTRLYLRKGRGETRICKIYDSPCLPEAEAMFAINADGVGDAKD
Put plainly: Competitive ELISA assay, disruption of BRC4/RAD51 interaction. Type of assay: binding. The conditions noted are these: human Rad51, biotinylated BRC4 peptide. The gist of the method:
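Competitive ELISA: plates coated with biotinylated BRC4 peptide, blocked with 1% BSA/PBST, then hybridized overnight with human Rad51 protein. Compounds tested in triplicate dose-response, […], 1% DMSO. Bound Rad51 detected colorimetrically with anti-Rad51 antibody, HRP secondary and TMB quenched with HCl.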
For orientation: ELISA stands for enzyme-linked immunosorbent assay.

Assay [1] concerns Homologous recombination (HR) in BxPC3 cells. Put plainly: Homologous recombination assay (HR). It counts as cell-based. As to conditions: Homo sapiens, BXPC-3, read-out: HR inhibition: IC50. As to the method: Homologous recombination (HR) was assessed by using a commercially available assay (Norgen). This assay is based on cell co-transfection with two plasmids that, upon cells entering, recombinate. The efficiency of HR can be assessed by real time PCR, using primer mixtures included in the assay kit. Different primer mixtures allow differentiation between the original plasmid backbones and their recombination product.
BxPC3 cells (2×10^3 per well) were seeded in a 24-well plate and allowed to adhere overnight. Co-transfection with the two plasmids was performed in Lipofectamine 2000 (Invitrogen) for 5 h, according to the manufacturer's instructions. During transfection cells were exposed at different doses of BRCA2-Rad51 disruptors, dissolved in RPMI without serum in the presence of 0.6% DMSO.
After washing with PBS, cells were harvested, and DNA was isolated using QIAamp® DNA Mini Kit (Qiagen). Sample concentration was measured using an ONDA Nano Genius photometer.
The thermal cycler (CFX96 ™ Real Time System, BioRad) was programmed as follows: initial denaturation 95° C. for 3 min then 95° C. for 15 sec., 61° C. for 30 sec., 72° C. for 1 min and repeated for 40 cycles. Melt curve analysis was done. Samples were run in triplicate, in 10 μl reaction volume containing 25 ng of template.
In each DNA sample from control and treated cultures, the ΔCt between the recombination product and the backbone plasmids was calculated. HR efficiency was evaluated from the 2^−ΔΔ^Ct value obtained by comparing treated vs control samples.

In the next assay the test system is BxPC-3 cells. Put plainly: Association with olaparib (given alone or in combination), cell viability / cytotoxicity. Type of assay: cell-based. The conditions noted are these: olaparib 10 μM, 72 h. How it is done: BxPC-3 cells were grown in RPMI 1640 containing 10% FBS, 100 U/ml penicillin/streptomycin, 2 mM glutamine. All media and supplements were from Sigma-Aldrich. Cultures were routinely tested for Mycoplasma contamination. Treatments (Olaparib and BRCA2-Rad51 disruptors) were administered in culture medium supplemented with 0.6% DMSO. The same amount of DMSO was added to the control, untreated cultures.
Cell viability was assessed by CellTiter Glo, Luminescent Cell Viability Assay. Briefly, BxPC-3 cells (1×10^4/well) were plated in white 96-well plates with clear bottom and treated for 72 h with olaparib (10 μM) or with the BRCA2-Rad51 disruptors, given alone or in combination. After treatments, the plate was allowed to equilibrate at room temperature for 30 min and the CellTiter-Glo reactive was directly added to each well. The plate was kept on a shaker for 2 min to induce cell lysis and its luminescence was measured by using a Fluoroskan Ascent FL reader (Labsystems) using manufacturer's instructions.
Cell death was assessed by applying the CellTox™ Green Cytotoxicity assay (Promega). Briefly, BxPC-3 (1×10^4/well) were plated in black 96-well plates with clear bottom and treated for 72 h with olaparib (10 μM) or with the BRCA2-Rad51 disruptors, given alone or in combination. At the end of treatment, the CellTox™ dye was added to cell cultures and the green fluorescence signal, which is produced by the binding interaction with dead cell DNA, was measured following the manufacturer's instructions. The fluorescence signal was detected using the EnSpire 2300 Multilabel Reader (Perkin Elmer); for each sample, the obtained signal was normalized on the number of viable cells, detected by the CellTiterGlo reagent.

A word on the EC50: it is the concentration at which the effect is half-maximal. A low value points to greater potency. What is called IC50 is the point on the concentration scale where inhibition reaches its midpoint. Compound `CCC(=O)N1N=C(c2c(-c3ccccc3)c3cc(Cl)ccc3[nH]c2=O)CC1c1ccc(OC)cc1` (stereo not drawn) [d.12, 6-chloro-3-[3-(4-methoxyphenyl)-2-propanoyl-3,4-dihydropyrazol-5-yl]-4-phenyl-1H-quinolin-2-one] showed an EC50 at BRC4/RAD51 interaction of 19 µM. In addition, the IC50 in assay [1] was determined as 18.4 µM. For the same compound, the “Olaparib Assoc.” value in the assay with BxPC-3 cells is recorded as “synergy”.
